The source of these data is patent publication US5055459A, “Selective elimination of malignant cells from bone marrow by bis (acyloxy) propylphosphoramidates” (Board of Regents, The University of Texas, priority 1989, dated 1991).

Values after ≈ are worked out from the molar mass of the structure shown. Where two headings read alike, the source gives them in different places.

Data set [1] concerns L1210 lymphatic leukemia cells. The experiment in a line: cells. Format: cell-based, murine.
Data set [2] concerns L1210 leukemia cells. The experiment in a line: cells. Type of data set: cell-based, murine. As to conditions: Mus musculus.
Data set [3] relates to L1210 leukemia cells. The experiment in a line: Growth inhibition of L1210 leukemia cells in vitro by nucleoside analogues (Table 7). Format: cell-based, murine. As to conditions: Mus musculus, growth inhibition by 50%, exposure 96 h, then 72 h drug-free culture. As for the experimental part: The effectiveness against growth of L1210 cells of 1 these nucleoside analogs was tested and the growth inhibition shown in Table 7.
^a Exponentially growing cells were exposed to varying drug
concentrations for 96 h at 37° C. The cells were then centrifuged,
resuspended, and cultured in drugfree medium for 72 h.
^b The drug concentration that inhibited cell growth by 50% compared
to untreated control cultures.

Data set [4] has as its system cyclophosphamide-resistant L1210 and P-388 cell-lines. The conditions noted are these: cited from earlier work.
A further data set relates to KBM-3/DOX. The experiment in a line: cells. Format: cell-based, human. As to conditions: human, kbm-3/dox cells.
The subject of the next data set is KBM-3/AMSA. Put plainly: cells. Format: cell-based, human. As to conditions: human, kbm-3/amsa cells.
The test system of data set [5] is GM-CFC from normal human bone marrow.

Turning to `CC(=O)OC(CCOP(=O)(NCCCl)NCCCl)OC(C)=O` [Compound 22-F, 0-(3,3-Diacetatopropyl)-N-(2-chloroethyl)-N-(2chloroethyl)phosphorodiamide], in data set [1], the “toxicity to L1210 cells, comparison in words” value is listed as “much more potent than ASTA Z 7557”. Moreover, the IC50 in data set [1] (Mus musculus, L1210, 72 h, read-out: ED50) is 1.7 µg/mL (≈ 4.48 µM).
Consider `COc1cccc2c1C(=O)c1c(O)c3c(c(O)c1C2=O)C[C@@](O)(C(C)=O)C[C@@H]3O[C@H]1C[C@H](NP(=O)(NCCCl)OCCC(OC(C)=O)OC(C)=O)[C@H](O)[C@H](C)O1` (stereo partly drawn) [Compound C-4], for which, in the data set with L1210 leukemia cells [2], the IC50 was 25 nM.
Regarding `CC(=O)OC(CCOP(N)(=O)OC[C@@H]1CC[C@H](n2ccc(=O)[nH]c2=O)O1)OC(C)=O` (stereo partly drawn) [Compound D-1], in the data set with L1210 leukemia cells [3], the IC50 is 1400 nM.
On to `CCN(CC)C(=S)SSC(=S)N(CC)CC` [disulfiram], for which, in data set [4], the “effect on cytotoxicity of 4-hydroperoxycyclophosphamide and ASTA Z 7557” value (shortened to “effect on cytotoxicity”) is on record as “potentiate the cytotoxicity”; the “sensitization of resistant L1210 cell-line” value is recorded as “rendered drug-sensitive”.
Consider `COc1cccc2c1C(=O)c1c(O)c3c(c(O)c1C2=O)C[C@@](O)(C(=O)CO)C[C@@H]3O[C@H]1C[C@H](NP(=O)(NCCCl)OCCC(OC(C)=O)OC(C)=O)[C@H](O)[C@H](C)O1` (stereo partly drawn) [Compound C-3], for which the IC50 in the data set on L1210 leukemia cells [2] is 21 nM.
`CC(=O)OC(CCOP(N)(=O)OC[C@@H]1CC[C@H](n2cc(C)c(=O)[nH]c2=O)O1)OC(C)=O` (stereo partly drawn) [Compound D-3] had an IC50 with L1210 leukemia cells [3] of 1300 nM.
With `COc1cccc2c1C(=O)c1c(O)c3c(c(O)c1C2=O)C[C@@](O)(C(=O)CO)C[C@@H]3O[C@H]1C[C@H](NP(=O)(NCCCl)OCCC(OC(=O)C(C)(C)C)OC(=O)C(C)(C)C)[C@H](O)[C@H](C)O1` (stereo partly drawn) [Compound C-7], in the data set with L1210 leukemia cells [2], the IC50 came out at 35 nM.
In the case of `CC(C)(C)C(=O)OC(CCOP(N)(=O)OC[C@@H]1CC[C@H](n2ccc(=O)[nH]c2=O)O1)OC(=O)C(C)(C)C` (stereo partly drawn) [Compound D-2], in the data set with L1210 leukemia cells [3], the IC50 is 700 nM.
In the case of `CCOP(=O)(CCC=O)c1ccccc1` (stereo not drawn) [ethylphenyl(2-formylethyl) phosphinate], in data set [4], the “effect on cytotoxicity” value is recorded as “potentiate the cytotoxicity”.
`COc1cccc2c1C(=O)c1c(O)c3c(c(O)c1C2=O)C[C@@](O)(C(C)=O)C[C@@H]3O[C@H]1C[C@H](NP(=O)(NCCCl)OCCC(OC(=O)C(C)(C)C)OC(=O)C(C)(C)C)[C@H](O)[C@H](C)O1` (stereo partly drawn) [Compound C-8] had an IC50 with L1210 leukemia cells [2] of 30 nM.
On to `COc1cccc2c1C(=O)c1c(O)c3c(c(O)c1C2=O)C[C@@](O)(C(=O)CO)C[C@@H]3O[C@H]1C[C@H](N)[C@H](O)[C@H](C)O1` [doxorubicin, reference compound], for which, in the data set on KBM-3/DOX, the “resistance of subline to doxorubicin” value was determined as 100 fold.
Regarding `COc1cc(NS(C)(=O)=O)ccc1Nc1c2ccccc2nc2ccccc12` [m-AMSA, 4'-(9-acridinylamino)-3-methanesulfon-m-amisidide, reference compound], in the data set with KBM-3/AMSA, the “resistance of subline to m-AMSA” value was found to be 130 fold. Moreover, the “GM-CFC recovery kinetics / progenitor sparing, in words” value in data set [5] is “nonselective killing of mature (GM-CFC) and primitive (pluripotent) myeloid progenitor cells”.
As for `CCN(CC)C(=S)S` [diethyl dithiocarbamate], the “effect on cytotoxicity” value in data set [4] (cyclophosphamide-resistant L1210 and P-388) is “potentiate the cytotoxicity”.
On to `Cc1cn([C@H]2CC[C@@H](COP(N)(=O)OCCC(OC(=O)C(C)(C)C)OC(=O)C(C)(C)C)O2)c(=O)[nH]c1=O` (stereo partly drawn) [Compound D-4], for which the IC50 in the data set on L1210 leukemia cells [3] was 1600 nM.
Take `N#CN` [cyanamide]: the “effect on cytotoxicity” value in data set [4] is reported as “potentiate the cytotoxicity”.
